From the supplement of paper PMC4932681

What was measured:
BT-474 Tam2 [1] = experiment: drug sensitivity score (DSS) (DSS (dimensionless)); higher = more sensitive; extreme values may be limits of the assay; conditions: 4-OH-tamoxifen in medium 1 µM; 72 h
Procedure, shortened: (§1)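 Breast cancer cell lines and their resistant derivatives were seeded into 384-well plates holding FO2Baq library drugs at five concentrations spanning a 10 000-fold range. Resistant lines were in medium with 1 μM of the selecting drug. Cells were incubated 72 h at 37 °C, and CellTiter-Glo viability was read on a PHERAstar and normalised to vehicle-only and positive controls. Drug sensitivity score, relative IC50 (curve midpoint) and top-dose inhibition came from logistic dose–response fits (Breeze pipeline).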

ZR-75-1 Tam1 [2] = experiment: as above; conditions: 4-OH-tamoxifen in medium 1 µM; 72 h
Procedure, shortened: as §1

T-47D Tam1 [3] = experiment: as above; conditions: 4-OH-tamoxifen in medium 1 µM; 72 h
Procedure, shortened: as §1

BT-474 [4] = experiment: as above; conditions: 72 h
Procedure, shortened: as §1

ZR-75-1 [5] = experiment: as above; conditions: 72 h
Procedure, shortened: as §1

BT-474 Tam1 [6] = experiment: as above; conditions: 4-OH-tamoxifen in medium 1 µM; 72 h
Procedure, shortened: as §1

MCF-7 Tam1 [7] = experiment: as above; conditions: 4-OH-tamoxifen in medium 1 µM; 72 h
Procedure, shortened: as §1

T-47D Tam2 [8] = experiment: as above; conditions: 4-OH-tamoxifen in medium 1 µM; 72 h
Procedure, shortened: as §1

T-47D [9] = experiment: as above; conditions: 72 h
Procedure, shortened: as §1

ZR-75-1 Tam2 [10] = experiment: as above; conditions: 4-OH-tamoxifen in medium 1 µM; 72 h
Procedure, shortened: as §1

MCF-7 [11] = experiment: as above; conditions: 72 h
Procedure, shortened: as §1

BT-474 Tam2 [12] = experiment: relative IC50 (midpoint of fitted logistic curve, plateau may be below 50% inhibition; CellTiter-Glo viability); higher = less potent; conditions: 4-OH-tamoxifen in medium 1 µM; 72 h
Procedure, shortened: as §1

ZR-75-1 Tam1 [13] = experiment: as above; conditions: 4-OH-tamoxifen in medium 1 µM; 72 h
Procedure, shortened: as §1

T-47D Tam1 [14] = experiment: as above; conditions: 4-OH-tamoxifen in medium 1 µM; 72 h
Procedure, shortened: as §1

BT-474 [15] = experiment: as above; conditions: 72 h
Procedure, shortened: as §1

ZR-75-1 [16] = experiment: as above; conditions: 72 h
Procedure, shortened: as §1

MCF-7 Tam1 [17] = experiment: as above; conditions: 4-OH-tamoxifen in medium 1 µM; 72 h
Procedure, shortened: as §1

T-47D Tam2 [18] = experiment: as above; conditions: 4-OH-tamoxifen in medium 1 µM; 72 h
Procedure, shortened: as §1

T-47D [19] = experiment: as above; conditions: 72 h
Procedure, shortened: as §1

ZR-75-1 Tam2 [20] = experiment: as above; conditions: 4-OH-tamoxifen in medium 1 µM; 72 h
Procedure, shortened: as §1

MCF-7 [21] = experiment: as above; conditions: 72 h
Procedure, shortened: as §1

BT-474 Tam1 [22] = experiment: as above; conditions: 4-OH-tamoxifen in medium 1 µM; 72 h
Procedure, shortened: as §1

Compound	drug sensitivity score (BT-474 Tam2 [1])	drug sensitivity score (ZR-75-1 Tam1 [2])	drug sensitivity score (T-47D Tam1 [3])	drug sensitivity score (BT-474 [4]; 4-OH-tamoxifen in medium 0 µM)	drug sensitivity score (BT-474 [4]; 4-OH-tamoxifen in medium 1 µM)	drug sensitivity score (ZR-75-1 [5]; 4-OH-tamoxifen in medium 0 µM)	drug sensitivity score (ZR-75-1 [5]; 4-OH-tamoxifen in medium 1 µM)	drug sensitivity score (BT-474 Tam1 [6])	drug sensitivity score (MCF-7 Tam1 [7])	drug sensitivity score (T-47D Tam2 [8])	drug sensitivity score (T-47D [9]; 4-OH-tamoxifen in medium 0 µM)	drug sensitivity score (T-47D [9]; 4-OH-tamoxifen in medium 1 µM)	drug sensitivity score (ZR-75-1 Tam2 [10])	drug sensitivity score (MCF-7 [11]; 4-OH-tamoxifen in medium 0 µM)	drug sensitivity score (MCF-7 [11]; 4-OH-tamoxifen in medium 1 µM)	relative IC50 (BT-474 Tam2 [12]) [µM]	relative IC50 (ZR-75-1 Tam1 [13]) [µM]	relative IC50 (T-47D Tam1 [14]) [µM]	relative IC50 (BT-474 [15]; 4-OH-tamoxifen in medium 0 µM) [µM]	relative IC50 (BT-474 [15]; 4-OH-tamoxifen in medium 1 µM) [µM]	relative IC50 (ZR-75-1 [16]; 4-OH-tamoxifen in medium 1 µM) [µM]	relative IC50 (MCF-7 Tam1 [17]) [µM]	relative IC50 (T-47D Tam2 [18]) [µM]	relative IC50 (T-47D [19]; 4-OH-tamoxifen in medium 0 µM) [µM]	relative IC50 (T-47D [19]; 4-OH-tamoxifen in medium 1 µM) [µM]	relative IC50 (ZR-75-1 Tam2 [20]) [µM]	relative IC50 (MCF-7 [21]; 4-OH-tamoxifen in medium 0 µM) [µM]	relative IC50 (MCF-7 [21]; 4-OH-tamoxifen in medium 1 µM) [µM]	relative IC50 (ZR-75-1 [16]; 4-OH-tamoxifen in medium 0 µM) [µM]	relative IC50 (BT-474 Tam1 [22]) [µM]
Cn1nnc2c(C(N)=O)ncn2c1=O [Temozolomide]	0	0	0	0	0	0.0165	0	0.313	0	0	0	0	0	0	0	> 10	> 10	> 10	> 10	> 10	> 10	> 10	> 10	> 10	> 10	> 10	> 10	> 10	–	–
Cc1cn(-c2cc(NC(=O)c3ccc(C)c(Nc4nccc(-c5cccnc5)n4)c3)cc(C(F)(F)F)c2)cn1 [Nilotinib]	0	0	0	0	0	0	0	1.63	0	0	0	0	0	0	0	> 10	> 10	> 10	> 10	> 10	> 10	> 10	> 10	> 10	> 10	> 10	> 10	> 10	> 10	–
O=C(Nc1c[nH]nc1-c1nc2ccc(CN3CCOCC3)cc2[nH]1)NC1CC1 [AT9283]	0	0	0	0	0	0	0	0	0	0	0	0	0	0	0	–	> 1	> 1	> 1	> 1	> 1	> 1	> 1	> 1	> 1	> 1	> 1	> 1	> 1	> 1
O=NN(CCCl)C(=O)NC1CCCCC1 [Lomustine]	0	0	0	0	0	0	0	0	0	0	0	0	0	0.0319	0.0924	> 10	> 10	> 10	> 10	> 10	> 10	> 10	> 10	> 10	> 10	> 10	–	–	> 10	–
